According to patent publication US20030165575A1, “Methods and compositions for treatment and diagnosis of alzheimer disease and other disorders” (Research Foundation for Mental Hygeine, Inc., priority 1994, published 2003):

Assays:
PP-2B = molecular target: T1, PP-2B (Bos taurus, UniProt P48452); test: Effect of effectors on dephosphorylation of AD P-tau by PP-2B (immunoblot); assay type: biochemical, bovine; details: for Activity of PP-2B towards AD P-tau with divalent cation in the presence of Ca2+ and calmodulin: 1.0 mM CaCl2, 1.0 μM calmodulin plus 1.0 mM NiCl2, 1.0 mM MnCl2 or 10 mM MgCl2; for Activity of PP-2B towards AD P-tau with divalent cation in the presence of Ca2+ and calmodulin / Magnitude of dephosphorylation of AD P-tau by PP-2B with the cation alone compared to inclusion of Ca2+ and calmodulin: Tau-1 immunoblot; for Magnitude of dephosphorylation of AD P-tau by PP-2B with the cation alone compared to inclusion of Ca2+ and calmodulin: 1.0 mM MnCl2 or 1.0 mM NiCl2 alone; for Concentration of metal ion for maximal dephosphorylation of AD P-tau by PP-2B / Concentration of metal ion that activated the dephosphorylation of AD P-tau by PP-2B: in the presence of 1.0 mM Ca2+ and 1.0 μM calmodulin
T1 construct: PP-2B (holoezyme) was purified from bovine brain according to the method of Sharma et al; from tissue; host or cells: bovine brain
Procedure: Rabbit skeletal muscle PP-1 was purchased from Upstate Bioteehnology Inc., Lake Placid, N.Y. Rat brain PP-2A1 and PP-2A2 were kindly provided by Dr. S. Jaspers of University of Massachusetts. […] Phosphorylase and calmodulin were purchased from Sigma, St. Louis, Mo. […] Alkaline phosphatase-conjugated goat anti-mouse and anti-rabbit IgG were purchased from Bio-Rad, Hercules, Calif.
Unless otherwise stated, dephosphorylation of AD P-tau was carried out at 30° C. in 50 mM Tris, pH 7.0, 10 mM β-mecaptoethanol, 0.1 mg/ml BSA, 50 μg/ml AD P-tau and PP-1 PP-2A or PP-2B. The reaction was started by addition of enzyme and stopped by addition of 5 volumes of cold acetone. The precipitated protein samples were dissolved in sodium dodecyl sulfate-polyacrylamide gel electrophoresis (SDS-PAGE) sample buffer and heated at 95° C. for 4 min, followed by 10% SDS-PAGE. […] Antiserum 92e is a phosphorylation-independent antibody which recognizes both AD P-tau and normal tau.

PP-2A1 [1] = molecular target: T2, PP-2A1 (Rattus norvegicus, UniProt P63331); test: Effect of Mn2+, Mg2+ and polylysine on dephosphorylation of AD P-tau by PP-2A1; assay type: biochemical; details: 2.0 mM MnCl2, 2.0 mM MgCl2 or 10 μM polylysine versus 1.0 mM EDTA; Tau-1 immunoblot
T2 construct: PP-2A1 and PP-2A2 were purified from rat brain basically as described by Cohen et al; tissue gift of Dr. S. Jaspers, University of Massachusetts; host or cells: rat brain
Source text: (§1) Phosphorylase, calmodulin, and poly-L-lysine (molecular weight 4,000-15,000) were purchased from Sigma, St. Louis, Mo. […] L. 1. Binder, University of Alabama, Birmingham, Ala.; A. Van de Voorde, Innogenetics, Industriepark Zwijinaarde, Belgium; and S. Greenberg, Burke Medical Research Institute, White Plains, N.Y., respectively. SMI33, SMI31, SMI34, goat anti-mouse IgG and peroxidase-anti-peroxidase complex were purchased from Sternberger Monoclonals Inc., Baltimore, Md. Alkaline phosphatase-conjugated goat anti-mouse and anti-rabbit IgG were purchased from Bio-Rad, Hercules, Calif.
(§2) In some experiments, Mn^2+ in the reaction mixture was replaced by other effectors (see Figure legends). In the reaction mixture for PP-2B, MnCl2 was substituted with-1.0 mM NiCl2, 1.0 mM CaCl2 and 1.0 μM calmodulin. The reaction was started by the addition of enzymes. After appropriate incubation times (see Figure legends), reactions were stopped by the addition of 5 volumes of cold acetone to precipitate proteins. Dephosphorylation was monitored by immunoblotting with the phosphorylation-dependent antibodies described below.
(§3) Res. Commun. […] Antibody AT8 was used at a concentration of 2.0 μg/ml. […] The intensity of immunostaining of-some blots with Tau-1 was scanned by using a Shimadzu dual-wavelength flying-spot scanner.

PP-2A1 [2] = molecular target: T2, PP-2A1; test: PP-2A1 activity with [32P]phosphorylase as substrate; assay type: biochemical; details: data not shown
PP-2A2 [3] = molecular target: T3, PP-2A2 (Rattus norvegicus, UniProt P63331); test: Effect of Mn2+, Mg2+ and polylysine on dephosphorylation of AD P-tau by PP-2A2; assay type: biochemical; design: PP-2A1 and PP-2A2 were purified from rat brain basically as described by Cohen et al; tissue gift of Dr. S. Jaspers, University of Massachusetts; host or cells: rat brain; details: 2.0 mM MnCl2, 2.0 mM MgCl2 or 10 μM polylysine versus 1.0 mM EDTA; Tau-1 immunoblot
Source text: as §1, §2, §3

PP-1 [4] = test: Effect of effectors on dephosphorylation of AD P-tau by PP-1 (immunoblot); assay type: biochemical, rabbit; details: for Effect on dephosphorylation of AD P-tau by PP-1: 1.0 mM Mn2+ or 10 mM Mg2+ versus 1.0 mM EDTA, PHF-1 immunoblot (Ser-396)
Procedure: Unless otherwise stated, dephosphorylation of AD P-tau was carried out at 30° C. in 50 mM Tris, pH 7.0, 10 mM β-mecaptoethanol, 0.1 mg/ml BSA, 50 μg/ml AD P-tau and PP-1, PP-2B or PP-2C. In some experiments, several effectors were added in the reaction mixture (see Results section). The reaction was started by addition of the enzyme. After appropriate incubation times (see Figure legends), reactions were stopped by addition of 5 volumes of cold acetone to precipitate proteins. The precipitated protein samples were dissolved in SDS-PAGE sample buffer (60 mM Tris-HCl, […], 3% SDS, 5% β-mercaptoethanol, 10% glycerol and 0.05% bromophenol blue) and heated at 95° C. for 4 min, followed by 10% SDS-PAGE.

PP-2A = test: Effect of effectors on dephosphorylation of AD P-tau by PP-2A (immunoblot); assay type: biochemical, rat
Source text: as §1, §2, §3

PP-1 [5] = test: PP-1 activity with [32P]phosphorylase kinase as substrate; assay type: biochemical, rabbit; details: 1.0 mM Mn2+ or 10 mM Mg2+
Procedure: (§4) For PP-2B and PP-2C activities, MnCl2 was substituted by 1.0 mM CaCl2 and 10 μM calmodulin, and 10 mM MgCl2, respectively.

PP-2C = PP-2C activity with [32P]phosphorylase kinase as substrate; assay type: biochemical, bovine; details: no activity detected in the absence of Mg2+ or Mn2+
Procedure: as §4

PP-2A2 [6] = molecular target: T3, PP-2A2; details: data not shown

T2 sequence (P63331 whole entry): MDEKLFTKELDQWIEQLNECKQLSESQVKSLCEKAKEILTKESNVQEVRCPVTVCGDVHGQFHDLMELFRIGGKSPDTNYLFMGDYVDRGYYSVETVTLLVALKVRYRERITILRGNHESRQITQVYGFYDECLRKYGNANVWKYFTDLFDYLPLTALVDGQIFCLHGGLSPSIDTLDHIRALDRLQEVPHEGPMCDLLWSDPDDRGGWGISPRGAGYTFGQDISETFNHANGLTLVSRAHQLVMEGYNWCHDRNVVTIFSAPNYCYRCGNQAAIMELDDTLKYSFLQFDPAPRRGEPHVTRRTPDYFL
T2 sequence (Q5XI34 1-589 partner): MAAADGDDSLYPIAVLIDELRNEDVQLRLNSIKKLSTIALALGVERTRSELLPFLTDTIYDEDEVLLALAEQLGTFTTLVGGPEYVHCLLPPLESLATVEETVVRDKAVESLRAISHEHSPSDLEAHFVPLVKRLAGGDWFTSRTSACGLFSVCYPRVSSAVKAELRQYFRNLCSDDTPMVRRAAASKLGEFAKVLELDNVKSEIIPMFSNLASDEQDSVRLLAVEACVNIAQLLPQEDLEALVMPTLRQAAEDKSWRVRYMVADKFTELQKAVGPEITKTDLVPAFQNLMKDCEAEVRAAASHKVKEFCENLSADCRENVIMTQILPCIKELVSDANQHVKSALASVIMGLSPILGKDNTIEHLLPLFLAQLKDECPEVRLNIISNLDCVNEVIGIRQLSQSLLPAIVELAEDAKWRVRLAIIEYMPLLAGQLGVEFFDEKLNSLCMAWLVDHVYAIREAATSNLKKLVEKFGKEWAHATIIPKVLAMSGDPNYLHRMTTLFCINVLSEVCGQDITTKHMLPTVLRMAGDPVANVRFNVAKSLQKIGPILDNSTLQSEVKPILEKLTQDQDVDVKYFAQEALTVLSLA
T2 sequence (P36876 whole entry partner): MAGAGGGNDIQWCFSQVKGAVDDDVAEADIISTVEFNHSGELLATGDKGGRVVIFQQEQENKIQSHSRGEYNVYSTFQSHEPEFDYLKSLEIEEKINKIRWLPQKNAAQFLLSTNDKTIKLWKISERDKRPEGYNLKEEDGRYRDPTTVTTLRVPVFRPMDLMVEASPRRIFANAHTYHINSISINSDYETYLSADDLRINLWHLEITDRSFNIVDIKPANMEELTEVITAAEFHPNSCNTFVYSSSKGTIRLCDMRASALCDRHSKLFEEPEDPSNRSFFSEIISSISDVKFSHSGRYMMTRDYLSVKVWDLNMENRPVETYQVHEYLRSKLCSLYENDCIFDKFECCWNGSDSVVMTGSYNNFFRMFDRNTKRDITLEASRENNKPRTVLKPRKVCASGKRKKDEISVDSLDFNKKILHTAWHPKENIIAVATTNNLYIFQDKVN
T3 sequence (P63331 whole entry): as the sequence (P63331 whole entry) above
T3 sequence (Q5XI34 1-589 partner): as the sequence (Q5XI34 1-589 partner) above

Compound	Effect on AD P-tau dephosphorylation by PP-2B (PP-2B)	Activity of PP-2B towards AD P-tau with divalent cation in the presence of Ca2+ and calmodulin (PP-2B)	Magnitude of dephosphorylation of AD P-tau by PP-2B with the cation alone compared to inclusion of Ca2+ and calmodulin (PP-2B)	Concentration of metal ion for maximal dephosphorylation of AD P-tau by PP-2B (PP-2B) [µM]	Concentration of metal ion that activated the dephosphorylation of AD P-tau by PP-2B (PP-2B) [FM]	Effect on activity of PP-2A1 towards AD P-tau (PP-2A1 [1])	Effect on PP-2A1 activity with [32P]phosphorylase as substrate (PP-2A1 [2])	Effect on activity of PP-2A2 towards AD P-tau (PP-2A2 [3])	Effect on dephosphorylation of AD P-tau by PP-1 (PP-1 [4])	Effect on PP-1 activity with [32P]phosphorylase kinase as substrate (PP-1 [5])	Metal dependence of PP-2C activity with [32P]phosphorylase kinase as substrate (PP-2C)	also measured
[Ni+2] [Ni^2+]	↑ ↑	highest activity	lower	100	10							
poly-L-lysine [Polylysine]						strongly activated	slightly stimulated	only slightly activated				
[Mn+2] [Mn^2+, manganese]	↑ ↑	lower	lower	100	10	markedly stimulated	almost no effect	markedly stimulated	strongly activated	activated	dependent	Effect on AD P-tau dephosphorylation by PP-1 (PP-1 [4]): ↑ ↑; Concentration at which activation of AD P-tau dephosphorylation by PP-1 reached maximum (PP-1 [4]; data not shown): about 100 μM; Concentration at which activation of AD P-tau dephosphorylation by PP-1 was observed (PP-1 [4]; data not shown): 10 µM; Effect on AD P-tau dephosphorylation by PP-2A (PP-2A): ↑ ↑; Effect on PP-2A2 activity with [32P]phosphorylase as substrate (PP-2A2 [6]): stimulated PP-2A2 much more strongly than polylysine did
[Mg+2] [Mg^2+, reference compound]		lower				no detectable effect		no detectable effect	inhibited	inhibited	dependent	
[Ca+2] [Ca^2+]												Dephosphorylation of tau by PP-2B in the presence of Ca2+ and calmodulin alone (PP-2B; 1.0 mM CaCl2 and 1.0 μM calmodulin, no other cation): no apparent dephosphorylation
C=C1[C@@H](O)[C@@H]2O[C@]3(CC[C@H](/C=C/[C@@H](C)[C@@H]4CC(C)=C[C@@]5(O[C@H](C[C@@](C)(O)C(=O)O)CC[C@H]5O)O4)O3)CC[C@H]2O[C@@H]1[C@@H](O)C[C@H](C)[C@H]1O[C@@]2(CCCCO2)CC[C@H]1C [okadaic acid, reference compound]												Unmasking of Tau-1 epitope of AD P-tau by PP-2A in the presence of the inhibitor (PP-2A; 1.0 μM okadaic acid, 5.0 U/ml PP-2A2, 30° C., 60 min): did not unmask Tau-1 epitope
